Assay results reported in patent publication US20060134063A1, “Agents for proliferating pancreatic beta-cells of the islets of langerhans, agents for suppressing apoptosis of said cells, and screening of candidate compounds for these agents” (priority 2000, published 2006).

What was measured:
[1] = system: Reg gene; assay: RT-PCR of Reg gene expression in RINm5F cells; type: cell-based, rat; details: 24 h with stimulants
Experimental: The Reg gene expression was analyzed by RT-PCR. The cells were harvested after 24 h of culturing in a medium supplemented with stimulants, and total RNA was prepared using cesium trifluoroacetate as described in Takasawa, S. et al. (1993) J. Biol. Chem., 268, 26052-26054. RT-PCR was performed using primers corresponding to nucleotides 23 to 43 and 572 to 593 of rat Reg mRNA (Terazono, K. et al. (1988) J. Biol. Chem., 263, 2111-2114).

[2] = system: 5' upstream region of rat HGF gene; assay: HGF promoter/luciferase reporter assay in RINm5F cells; type: cell-based; details: -1336 to +85 construct; 10 mM nicotinamide; 24 h
Experimental: The 5′ upstream region (−1336 to +85) of rat HGF gene was inserted into the multicloning site of pGL3-Basic (Promega) to prepare a luciferase reporter gene construct. Rat insulinoma RINm5F cells were seeded at 1×10^5 cells/well in a 24-well plate, incubated for 2 days, then, transfected with the test luciferase reporter construct using DMRIE-C™ (Life Technologies, Inc.) as described in Akiyama, T. et al. (2001) Proc. Natl. Acad. Sci. USA 98, 48-53. […] Then, the cells were harvested in 1 ml of ice-cold phosphate-buffered saline (PBS), washed twice with PBS, and cell extracts were prepared in extraction buffer (0.1 M potassium phosphate, pH 6.8, 1 mM DTT). The protein concentration was determined using a Coomassie reagent kit (Pierce) and bovine serum albumin as a standard. Luciferase activity was determined using a chemiluminescence substrate and a Pica Gene™ Luminescence Kit (Toyo Ink Mfg. Co, Ltd., Tokyo, Japan). β-Galactosidase activity was measured using an Aurora™ GAL-XE (ICN).
Various lengths of 5′ upstream regions HGF gene (Okajima, A., Miyazawa, K. and Kitamura, N. (1993) Eur. J. Biochem. 213, 113-119 (GenBank Ac. No. D14341)) were inserted into the multicloning site of pGL3-Basic (Promega) to prepare luciferase reporter gene constructs (FIG. 10). […] The protein concentration was determined using a Coomassie reagent kit (Pierce) and bovine serum albumin as a standard. […]

[3] = system: 5'-flanking region of the rat Reg gene; assay: Reg promoter/luciferase reporter assay in RINm5F cells; type: cell-based
Experimental: A 2,303-bp fragment containing the 5′-flanking region of Reg gene was fused to the luciferase gene and transfected into RINm5F β-cells.
Specifically, luciferase reporter gene constructs were generated as described in Miyashita, H. et al. (1994) Biochim. Biophys. Acta, 1219, 241-243. RINm5F cells were seeded at 1×10^5 cells/well in 24-well dish. After 48 h, 3.0 μg of test plasmid and 0.2 μg of pCMV-SPORT β-gal (Life Technologies, Inc.) were transfected by lipofection (Felgner, J. H. et al. (1994) J. Biol. Chem., 269, 2550-2561) using DMRIE-C™ (Life Technologies, Inc.). After 24 h, the medium of each dish was replaced with fresh medium containing stimulants and incubated further for 24 h. Cells were harvested in 1 ml of ice-cold phosphate-buffered saline (PBS), washed twice with PBS, and extracts were prepared in extraction buffer (0.1 M potassium phosphate, pH 6.8, 1 mM DTT). The protein concentration was determined using a Coomassie reagent kit (Pierce) and bovine serum albumin as a standard. Luciferase activity was determined by a chemiluminescence substrate using a Pica Gene™ Luminescence Kit (Toyo Ink Mfg. Co, Ltd., Tokyo, Japan). β-galactosidase activity was determined using Aurora™ GAL-XE (ICN).

[4] = system: 90% depancreatized rats; details: PARP inhibitor-treated rats; cited from earlier work
[5] = nicotinamide added to IL-6/dexamethasone

NC(=O)c1cccnc1 [nicotinamide]
Reg gene expression (Reg mRNA) [1]: no effect on Reg expression
transcriptional activity of HGF gene (luciferase), nicotinamide added to IL-6/dexamethasone [2]: further enhanced this transcriptional induction
luciferase activity (result in words) ([3]; 2,303-bp Reg 5'-flanking fragment, 24 h stimulation): ineffective
enhancement of IL-6/dexamethasone-induced transcription of Reg gene, "-70" construct [3, 5]: abolished
enhancement of IL-6/dexamethasone-induced transcription of Reg gene, -2,303 to -81 deletions [3, 5]: the enhancement was observed
development of diabetes after 90% pancreatectomy [4]: preventing the development of diabetes
